Source: PMC3350483, “Versatile Toolbox for High Throughput Biochemical and Functional Studies with Fluorescent Fusion Proteins” (PLoS ONE, 2012)

How the values were obtained:
GFP-Cbx1 [1] = test: In vitro histone-tail peptide binding assay on GFP-multiTrap; set-up: species or system mouse; conditions: for Binding of GFP-Cbx1 to histone-tail peptide (binding ratios, Figure 2A): 0.15 µM TAMRA-labeled peptide per well, RT 20 min
Experimental: In the next assay we determined whether this approach is also feasible to quantify binding affinities between GFP-proteins and peptides or DNA. First, we analyzed histone-tail peptide binding specificities of the chromobox homolog 1, Cbx1, fused with a N-terminal GFP-tag using the GFP-multiTrap. GFP-Cbx1 was purified from mammalian cell lysate, as described above, and the bound protein was incubated with TAMRA-labeled histone-tail peptides. A set of 20 different histone-tail peptides (Table 1) was used in technical triplicates in parallel and GFP served as negative control (GFP data is not shown). After removal of unbound substrate the amounts of protein and histone-tail peptide were determined by fluorescence intensity measurements using a micro plate reader. Binding ratios were calculated by dividing the concentration of bound histone-tail peptide by the concentration of GFP fusion (Figure 2A). […] In addition to fluorescent quantification via a micro plate reader, we scanned the TAMRA signals using a Typhoon scanner (Figure 2B). […] These differences could result from different sensitivities of both methods. […] We incubated GFP-Cbx1 with TAMRA-labeled H3K9me3 in parallel with either biotinylated H3K9me3 or H3K9ac histone-tail peptides. […] In contrast, we could not detect a significant difference in binding ratios between di- and trimethylated H3K9 histone tail peptides using a micro plate reader (Figure 2A). One explanation could be the use of different expression systems. While the binding ratios for the HP1β chromo domain were determined using bacterially expressed protein we used a fluorescent fusion protein derived from mammalian cells. […] To determine the binding affinity of GFP-Cbx1 to H3K9me3, we varied the input amount of histone-tail peptide. We plotted the amount of bound histone-tail peptide as a function of total peptide and fitted the values using GraphPad Prism and nonlinear regression (Figure 2D). The amount of bound H3K9me3 histone-tail peptide increases linearly and saturates at approximately 500 nM of input peptide. […] Here, the input amount of protein/substrate was measured in solution, whereas the bound fraction represents one value on the 96-well surface.
For purification, 100 µL or 50 µL precleared cellular lysate for full-area plates or half-area plates, respectively, was added per well and incubated for 2 hours at 4°C on a GFP-multiTrap plate by continuous shaking. After removing the supernatant, wells were washed twice with 100 µL of washing buffer (WB; 20 mM Tris-HCl pH 7.5, 100–300 mM NaCl, 0.5 mM EDTA) and 100 µL of IP or dilution buffer was added for measurement. The amounts of bound protein were determined by fluorescence intensity measurements with a Tecan Infinite M1000 plate reader (Tecan, Austria). Wavelengths for excitation and emission of GFP are 490±10 nm and 511±10 nm, for RFP are 586±5 nm and 608±10 nm and for YFP 525±5 nm and 538±5 nm, respectively. The concentration of proteins was calculated using calibration curves that were determined by measuring the fluorescence signal of known concentrations of purified GFP, RFP and YFP. […] Bound proteins were eluted with 300 mM Glycin pH 2.5 and subsequently buffered with 1 M Tris pH 7.5. Elution fractions were added to SDS-containing sample buffer (referred to as Bound (B)). Bound proteins were visualized by immunoblotting using the anti-GFP mouse monoclonal antibody (Roche, Germany).
The in vitro histone-tail binding assay was performed as described previously. After one-step purification of GFP fusion proteins the wells were blocked with 100 µL 3% milk solved in TBS-T (0.075% Tween) for 30 minutes at 4°C on a plate vortex, shaking gently. After blocking, the wells were equilibrated in 50 µL IP buffer supplemented with 0.05% Tween. […]

HP1β chromo domain = conditions: bacterially expressed protein; ref [11], [12]; read-out: binding affinities; cited from earlier work
[2] = target: GFP-Cbx1 (chromobox homolog 1 fused with an N-terminal GFP-tag) (mouse) (UniProt P83917); test: GFP-multiTrap plate binding assay, fluorescence read-out; GFP fusion held on the GFP-multiTrap 96-well plate, blocked with 3% milk; 0.15 µM TAMRA-labeled histone-tail peptide, 20 min at RT, IP buffer (20 mM Tris-HCl pH 7.5, 150 mM NaCl, 0.5 mM EDTA) with 0.05% Tween; ratio of bound peptide over GFP fusion by plate reader
UniProt P83917, sequence (P83917 whole entry, the tested form may be a part): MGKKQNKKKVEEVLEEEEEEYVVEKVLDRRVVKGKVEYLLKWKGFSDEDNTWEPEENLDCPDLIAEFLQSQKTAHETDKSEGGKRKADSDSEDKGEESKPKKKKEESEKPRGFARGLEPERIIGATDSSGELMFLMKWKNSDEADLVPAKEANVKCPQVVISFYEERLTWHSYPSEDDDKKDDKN

GFP-Cbx1 [3] = test: Competition assay between TAMRA-labeled H3K9me3 and biotinylated histone-tail peptides; type: binding, mouse; conditions: biotinylated peptide added in parallel; Figure 2C; three independent experiments; **P<0.003
Experimental: In the next assay we determined whether this approach is also feasible to quantify binding affinities between GFP-proteins and peptides or DNA. First, we analyzed histone-tail peptide binding specificities of the chromobox homolog 1, Cbx1, fused with a N-terminal GFP-tag using the GFP-multiTrap. GFP-Cbx1 was purified from mammalian cell lysate, as described above, and the bound protein was incubated with TAMRA-labeled histone-tail peptides. A set of 20 different histone-tail peptides (Table 1) was used in technical triplicates in parallel and GFP served as negative control (GFP data is not shown). After removal of unbound substrate the amounts of protein and histone-tail peptide were determined by fluorescence intensity measurements using a micro plate reader. Binding ratios were calculated by dividing the concentration of bound histone-tail peptide by the concentration of GFP fusion (Figure 2A). […] In addition to fluorescent quantification via a micro plate reader, we scanned the TAMRA signals using a Typhoon scanner (Figure 2B). […] In contrast, we could not detect a significant difference in binding ratios between di- and trimethylated H3K9 histone tail peptides using a micro plate reader (Figure 2A). […] While the binding ratios for the HP1β chromo domain were determined using bacterially expressed protein we used a fluorescent fusion protein derived from mammalian cells. […]

Cbx1 = Cbx1 (UniProt P83917); test: TAMRA-peptide binding to GFP-multiTrap-immobilised GFP-Cbx1; conditions: reference: H3K9me3 peptide; sites S10
[4] = target: GFP-PBD (green fluorescent PCNA-binding domain of Dnmt1); test: GFP-multiTrap plate binding assay, fluorescence read-out; GFP fusion held on the GFP-multiTrap plate, blocked with 3% milk, incubated with HEK293T cellular extract holding the RFP fusion for 30 min at RT; molar ratio of bound RFP fusion over GFP fusion by plate reader
[5] = plate reader, three independent experiments

For “ART K QTARKSTGGKAPRKQLK [H3 (1–20), TAMRA-labeled unmodified histone H3 tail peptide, residues 1–20]”, the “Binding of Cbx1 with varied input amount of peptide (Figure 2D)” value (GFP-Cbx1 [1]; varied input of TAMRA-labeled peptide, plate reader, two independent experiments for H3) was “could not detect any binding”.
In the case of “ARTKQTAR X2 S TGGKAPRKQLK [H3K9me2, TAMRA-labeled histone H3 tail peptide, dimethylated Lysine 9]”, the “Binding of GFP-Cbx1 to histone-tail peptide (binding ratios, Figure 2A)” value (“Binding … (binding ratios, Figure 2A)” for short) (GFP-Cbx1 [1]; [5]) is listed as “preferentially binds”, the “TAMRA signals of bound peptide by Typhoon scanner (Figure 2B)” value (GFP-Cbx1 [1]; fluorescence scanner) is listed as “detected TAMRA signals” and the Kd (HP1β chromo domain) is listed as 7 µM.
With “ARTKQTAR X3 S TGGKAPRKQLK [H3K9me3, TAMRA-labeled histone H3 tail peptide, trimethylated Lysine 9]” the “Binding … (binding ratios, Figure 2A)” value (GFP-Cbx1 [1]; [5]) was “preferentially binds”, the “TAMRA signals of bound peptide by Typhoon scanner (Figure 2B)” value (GFP-Cbx1 [1]; fluorescence scanner) was “detected TAMRA signals” and the “Preference in binding by fluorescence scanner” value (GFP-Cbx1 [1]; fluorescence scanner, no difference seen with micro plate reader) was “preference for tri- over dimethylated H3K9”. For the same substance, the “Input peptide at which bound histone-tail peptide saturates” value (GFP-Cbx1 [1]; varied input of TAMRA-labeled peptide, Figure 2D, nonlinear regression, three independent experiments) was “approximately 500 nM” and the Kd (HP1β chromo domain) was 2.5 µM.
In the case of “ARTKQTAR X3 Z2 TGGKAPRKQLK [H3K9me3S10p, TAMRA-labeled H3 tail peptide, trimethylated Lysine 9 and phosphorylated Serine 10]”, the “Binding … (binding ratios, Figure 2A)” value (GFP-Cbx1 [1]; [5]) is reported as “prevents binding”.
With “H3 (1–20) histone-tail peptide, TAMRA-labeled” the relative binding ratio (substrate/GFP fusion) [2] was 0.0772.
With “H3K9me3 histone-tail peptide, TAMRA-labeled” the relative binding ratio (substrate/GFP fusion) [2] was 0.572.
With “biotinylated H3K9ac: biotinylated H3K9ac histone-tail peptide used as competitor” the “Effect of competitor on binding of Cbx1 to TAMRA-labeled H3K9me3” value (GFP-Cbx1 [3]) was “did not alter”.
With “biotinylated H3K9me3: biotinylated H3K9me3 histone-tail peptide used as competitor” the “Effect of competitor on binding of Cbx1 to TAMRA-labeled H3K9me3” value (GFP-Cbx1 [3]) was “significantly decreased”.
In the case of “histone H3 1-20 (from UniProt P68431) H3K9me3S10p peptide”, the “binding against the reference” value (Cbx1) is reported as “lost”.
For mRFP, the relative binding ratio (substrate/GFP fusion) [4] was 0.005.
